According to patent publication US7507860B2 (Pfizer Inc., priority 2004, dated 2009):
Where a chain is given by its changes, count along the chain named. pIC50: −log10 of the molar value. Read-outs that look alike come from different tables or passages of the source.

What was measured:
[1] = biological target: T1, human androgen receptor (hAR) (Homo sapiens, UniProt P10275); experiment: Competitive binding analysis on baculovirus/Sf9 generated hAR extracts with 3H-DHT tracer; settings: hAR extract, 1 nM 3H-DHT, one hour at 4° C, mean of multiple tests; for pIC50: read-out: AR Binding IC50
T1 construct: made in house; host or cells: baculovirus/Sf9 insect cells (crude extract)
T1 sequence (P10275 1-920): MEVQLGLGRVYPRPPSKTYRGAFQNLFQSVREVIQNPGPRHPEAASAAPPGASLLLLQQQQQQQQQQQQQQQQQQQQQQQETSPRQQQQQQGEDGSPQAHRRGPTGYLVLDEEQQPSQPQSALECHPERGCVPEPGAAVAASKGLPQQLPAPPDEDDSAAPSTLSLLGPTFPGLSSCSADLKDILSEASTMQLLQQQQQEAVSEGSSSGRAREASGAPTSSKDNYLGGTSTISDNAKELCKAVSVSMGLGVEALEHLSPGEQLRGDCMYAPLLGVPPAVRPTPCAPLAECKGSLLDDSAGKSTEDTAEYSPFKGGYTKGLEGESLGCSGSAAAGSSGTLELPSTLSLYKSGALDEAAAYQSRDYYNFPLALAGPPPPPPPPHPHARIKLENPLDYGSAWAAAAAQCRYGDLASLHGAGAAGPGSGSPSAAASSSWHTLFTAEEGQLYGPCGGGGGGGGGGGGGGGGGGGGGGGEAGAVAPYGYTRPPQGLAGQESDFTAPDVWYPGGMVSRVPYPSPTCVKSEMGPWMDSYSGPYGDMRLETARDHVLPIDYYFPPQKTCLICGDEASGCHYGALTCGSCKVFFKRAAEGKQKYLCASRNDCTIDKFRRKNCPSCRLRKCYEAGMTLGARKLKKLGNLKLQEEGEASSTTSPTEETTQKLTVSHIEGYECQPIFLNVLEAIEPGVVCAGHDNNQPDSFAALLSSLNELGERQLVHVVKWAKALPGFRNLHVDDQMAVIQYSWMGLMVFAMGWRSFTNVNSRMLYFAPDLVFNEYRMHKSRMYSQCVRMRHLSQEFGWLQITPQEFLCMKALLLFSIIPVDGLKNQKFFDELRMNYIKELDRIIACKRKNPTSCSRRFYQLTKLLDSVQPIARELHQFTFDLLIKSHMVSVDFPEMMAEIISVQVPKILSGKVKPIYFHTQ
Procedure: The compounds of Formula I have affinity for the androgen receptor. […] The description below describes how the assay was carried out.
Competitive binding analysis was performed on baculovirus/Sf9 generated hAR extracts in the presence or absence of different concentrations of test agent and a fixed concentration of ^3H-dihydrotestosterone (^3H-DHT) as tracer. This binding assay method is a modification of a protocol previously described (Liao S., et. al. J. Steroid Biochem. 20:11-17 1984). Briefly, progressively decreasing concentrations of compounds are incubated in the presence of hAR extract (Chang et al. P.N.A.S. Vol. 89, pp. […], 1992), hydroxylapatite, and 1 nM^3H-DHT for one hour at 4° C. Subsequently, the binding reactions are washed three times to completely remove excess unbound ^3H-DHT. hAR bound ^3H-DHT levels are determined in the presence of compounds (=i.e competitive binding) and compared to levels bound when no competitor is present (=i.e. maximum binding). Compound binding affinity to the hAR is expressed as the concentration of compound at which one half of the maximum binding is inhibited. Table II below provides the results that were obtained for selected compounds (reported data is the mean of multiple tests as shown below)

[2] = biological target: T2, androgen receptor (Homo sapiens, UniProt P10275); experiment: AR antagonist cell assay (MDA-MB453-MMTV clone 54-19 luciferase reporter, 100 pM DHT); type: cell-based; settings: MDA-MB453-MMTV clone 54-19, inhibition of 100 pM DHT induction, 17 hr; mean of multiple tests; read-out: AR Cell IC50
T2 sequence (P10275 1-920 Q868H): T1 sequence (P10275 1-920) with Q868H
Procedure: The compounds ability to antagonize the effects of androgen on the androgen receptor were determined in a whole cell assay as described immediately below.
Experimental Procedure for AR Antagonist Cell Assay
This cell line is a stable transfected cell line with MDA-MB453 cell background (a human breast tumor cell line expressing androgen receptor). A MMTV minimal promoter containing ARE was first cloned in front of a firefly luciferase reporter gene. Then the cascade was cloned into transfection vector pUV120puro. […] Puromycin resistant stable cell line was selected. Cell Culture Media and Reagents:
Plating medium: DMEM (phenol red free), 10% charcoal treated HyClone serum, 1% L-glutamine
Assay medium: DMEM (phenol red free), 1% charcoal treated HyClone serum, 1% L-glutamine, and 1% penicillin/streptomycin
• 1. Cells are maintained in culture medium, splitting cells when they reach 80-90% confluence • 2. To test compounds, 10,000 cells/well are plated to opaque 96 cell culture plate in 100 ul/well plating medium, culture for overnight at 37° C. in cell culture incubator • 3. […] Add 10 ul/well freshly prepared DHT (final concentration at 100 pM) to each well, incubate at 37° C. for 17 hr (overnight) • 5.
The results are reported as the mean of multiple tests as described below (the numbers of tests are indicated in the footnote). N.D. denotes that the compound was not tested.

SMILES	pIC50 [1]	pIC50 [2]	IC50 ([1]; AR Binding IC50 (nM))
CC(C)CCNC(=O)C(CC(C)C)Oc1ccc(C#N)c(C(F)(F)F)c1 (centres unmarked) [Example 22, 2-(4-Cyano-3-trifluoromethyl-phenoxy)-4-methyl-pentanoic acid (3-methyl-butyl)amide]	6.75	< 6.00	
CC(C)CC(Oc1ccc(C#N)c(C(F)(F)F)c1)C(=O)NCc1ccc2c(c1)OCO2 (centres unmarked) [Example 24, 2-(4-Cyano-3-trifluoromethyl-phenoxy)-4-methyl-pentanoic acid (benzo[1,3]dioxol-5-yl-methyl)-amide]	7.25	6.10	
CC(C)CC(Oc1ccc(C#N)c(C(F)(F)F)c1)C(=O)NCc1ccc2c(c1)CCO2 (centres unmarked) [Example 25, 2-(4-Cyano-3-trifluoromethyl-phenoxy)-4-methyl-pentanoic acid (2,3-dihydro-benzofuran-5-yl-methyl)-amide]	7.17	6.10	
CC(C)CC(Oc1ccc(C#N)c(C(F)(F)F)c1)C(=O)NCc1ccc2nsnc2c1 (centres unmarked) [Example 26, 2-(4-Cyano-3-trifluoromethyl-phenoxy)-4-methyl-pentanoic acid (benzo[1,2,5]thiadiazol-5-yl-methyl)-amide]	7.17	< 6.00	
CCCC(Oc1ccc(C#N)c(C(F)(F)F)c1)C(=O)NCc1ccc2c(c1)OCO2 (centres unmarked) [Example 29, 2-(4-Cyano-3-trifluoromethyl-phenoxy)-pentanoic acid (benzo[1,3]dioxol-5-yl-methyl)-amide]	6.74	< 6.00	
CCCC(Oc1ccc(C#N)c(C(F)(F)F)c1)C(=O)NCc1ccc2c(c1)CCO2 (centres unmarked) [Example 30, 2-(4-Cyano-3-trifluoromethyl-phenoxy)-pentanoic acid (2,3-dihydro-benzofuran-5-yl-methyl)-amide]	6.87	6.45	
CCCC(Oc1ccc(C#N)c(C(F)(F)F)c1)C(=O)NCc1ccc2nsnc2c1 (centres unmarked) [Example 31, 2-(4-Cyano-3-trifluoromethyl-phenoxy)-pentanoic acid (benzo[1,2,5]thiadiazo-5-yl-methyl)-amide]	7.08	< 6.00	
COc1cccc(CNC(=O)C(CC(C)C)Oc2ccc(C#N)c(C(F)(F)F)c2)c1 (centres unmarked) [Example 33, 2-(4-Cyano-3-trifluoromethyl-phenoxy)-4-methyl-pentanoic acid-3-methoxy-benzylamide]	7.21	6.06	
COc1ccc(CCNC(=O)C(CC(C)C)Oc2ccc(C#N)c(C(F)(F)F)c2)cc1 (centres unmarked) [Example 34, 2-(4-Cyano-3-trifluoromethyl-phenoxy)-4-methyl-pentanoic acid [2-(4-methoxyphenyl)-ethyl]amide]	7.17	< 6.00	
COc1ccccc1CNC(=O)C(CC(C)C)Oc1ccc(C#N)c(C(F)(F)F)c1 (centres unmarked) [Example 35, 2-(4-Cyano-3-trifluoromethyl-phenoxy)-4-methyl-pentanoic acid-2-methoxy-benzylamide]	7.11	6.11	
CCOc1ccccc1CNC(=O)C(CC(C)C)Oc1ccc(C#N)c(C(F)(F)F)c1 (centres unmarked) [Example 36, 2-(4-Cyano-3-trifluoromethyl-phenoxy)-4-methyl-pentanoic acid-2-ethoxy-benzylamide]	7.38	< 6.00	
Cc1cccc(CNC(=O)C(CC(C)C)Oc2ccc(C#N)c(C(F)(F)F)c2)c1 (centres unmarked) [Example 37, 2-(4-Cyano-3-trifluoromethyl-phenoxy)-4-methyl-pentanoic acid-3-methyl-benzylamide]	7.39	< 6.00	
Cc1ccccc1CNC(=O)C(CC(C)C)Oc1ccc(C#N)c(C(F)(F)F)c1 (centres unmarked) [Example 38, 2-(4-Cyano-3-trifluoromethyl-phenoxy)-4-methyl-pentanoic acid-2-methyl-benzylamide]	7.82	< 6.00	
COc1ccc(CNC(=O)C(CC(C)C)Oc2ccc(C#N)c(C(F)(F)F)c2)cc1 (centres unmarked) [Example 39, 2-(4-Cyano-3-trifluoromethyl-phenoxy)-4-methyl-pentanoic acid-4-methoxy-benzylamide]	7.38	< 6.00	
CCCC(Oc1ccc(C#N)c(C(F)(F)F)c1)C(=O)NCc1ccccc1OC (centres unmarked) [Example 41, 2-(4-Cyano-3-trifluoromethyl-phenoxy)-pentanoic acid-2-methoxy-benzylamide]	6.77	6.89	
CCCC(Oc1ccc(C#N)c(C(F)(F)F)c1)C(=O)NCc1ccccc1OCC (centres unmarked) [Example 42, 2-(4-Cyano-3-trifluoromethyl-phenoxy)-pentanoic acid-2-ethoxy-benzylamide]	6.86	< 6.00	
CCCC(Oc1ccc(C#N)c(C(F)(F)F)c1)C(=O)NCc1cccc(C)c1 (centres unmarked) [Example 43, 2-(4-Cyano-3-trifluoromethyl-phenoxy)-pentanoic acid-3-methyl-benzylamide]	7.00	6.98	
CCCC(Oc1ccc(C#N)c(C(F)(F)F)c1)C(=O)NCc1ccccc1C (centres unmarked) [Example 44, 2-(4-Cyano-3-trifluoromethyl-phenoxy)-pentanoic acid-2-methyl-benzylamide]		7.43	42 nM
CCCC(Oc1ccc(C#N)c(C(F)(F)F)c1)C(=O)NCc1ccc(C)cc1C (centres unmarked) [Example 45, 2-(4-Cyano-3-trifluoromethyl-phenoxy)-pentanoic acid-2,4-dimethyl-benzylamide]	7.24	< 6.00	
